Values quoted from earlier work, collected in patent US20090252807A1, “Nanoparticulate and Controlled Release Compositions Comprising Prostaglandin Derivatives” (ELAN PHARMA INTERNATIONAL LIMITED, priority 2005, published 2009).
Where two headings read alike, the source gives them in different places.

What was measured:
[1] = tested on: blood pressure; details: 100 and 300 μg/kg orally in rats
[2] = tested on: platelet adhesiveness; details: in vitro
[3] = tested on: coronary blood flow; details: intra-coronary injection 100 ng/kg or intravenous injection 3 μg/kg, anesthetized dogs

(E)-7-{(1R,2R,3R)-3-hydroxy-2-[(3S,5S)-E-3hydroxy-5-methyl-1-nonenyl]-5-oxocyclopentyl}-2-heptonoic acid α-cyclodextrin inclusion compound [Limaprost]
solubility in diethylether: practically insoluble
solubility in ethanol: very slightly soluble
solubility in ethyl acetate: practically insoluble
solubility in water: freely soluble
solubility in water (listed as limaprost): practically insoluble
hypotensive effects [1]: Significant hypotensive effects
potency relative to PGE1 as an inhibitor of platelet adhesiveness [2]: 10-1,000 times
increase of coronary blood flow [3]: 60-80%
